Source: publication PMC5663926, “In vivo near-infrared imaging of ErbB2 expressing breast tumors with dual-axes confocal endomicroscopy using a targeted peptide” (Scientific Reports, 2017)

Assays:
[1] = Absorption and fluorescence emission spectra; format: physicochemical
Description: We synthesized the ErbB2 and control peptides using standard Fmoc mediated solid-phase chemical synthesis and labeled with either Cy5.5 or IRDye800 fluorophores via standard bio-conjugation techniques. We used IRDye800CW-malemide (LiCor Biosciences) to label the peptide via a GGGSC linker at the C-terminus. The coupling yield was about 20–30% in aqueous solution without use of catalysis. IRDye800CW was used because of its high quantum yield, photostability, and lack of toxicity. The peptide absorption spectrum was measured using a UV-vis spectrophotometer in the 300–900 nm range (NanoDrop 2000, Thermo Scientific). Fluorescence emission from a 5 μM peptide solution diluted in PBS was collected with a fiber coupled spectrophotometer (Ocean Optics) using a diode pumped solid state laser (Technica Laser Inc) with excitation at λex = 780 nm. The spectra were plotted using Origin 9.5 software (OriginLab Corp).

[2] = tested on: ErbB2 in BT474 and MDA-MB-231 xenograft tumor and normal breast sections; experiment: Immunofluorescence of human xenograft breast tumor sections; set-up: species or system mouse; details: 0.5 μM peptide, 10 min at RT
Experimental: Representative histology (H&E) for the MDA-MB-231 tumor is shown, Fig. S7I. […] Representative histology (H&E) for normal is shown, Fig. S7M.
(§1) Resected human xenograft breast tumors and normal breast tissues from n = 8 mice were formalin-fixed, paraffin embedded, and cut in 5 μm thick sections. IDC and normal human breast tissues were collected and prepared with the same protocol. The specimens were cut in 5 μm sections, and deparaffinization, rehydration and antigen unmasking was performed, as described previously. Blocking was performed with DAKO protein blocking agent (X0909, DAKO) for 1 hour at RT. Sections were then incubated with 0.5 μM of either peptide in 2% BSA for 10 min at RT. The sections were washed with PBS 3X and mounted with Prolong Gold reagent containing DAPI (Invitrogen).

[3] = tested on: ErbB2 in human breast specimens (IDC, DCIS, normal); experiment: Immunofluorescence of human breast specimens ex vivo
Description: We evaluated peptide binding to sections of human breast specimens to assess potential for clinical translation. […] Representative histology (H&E) is shown, Fig. 6D. We also observed strong co-localization of binding (arrow) between KSP*-IR800 peptide (red) and AF488-labeled anti-ErbB2 antibody (green) to ErbB2 + IDC specimens with Pearson’s correlation coefficient of ρ = 0.53, Fig. 6E,F. We quantified the fluorescence intensities, Fig. 6G. […] Representative histology (H&E) for DCIS is shown, Fig. 6M. […] Representative histology (H&E) for normal is shown, Fig. 6O.
as §1
Formalin-fixed, paraffin-embedded (FFPE) human breast specimens known to express ErbB2 (n = 4 patients) were obtained from the archived tissue bank in the Department of Pathology at the University of Michigan. 5 μm sections were cut and rehydrated to water. Slides were counterstained with Harris Hematoxylin for 5 sec, dehydrated, and cover-slipped. Heat induced epitope retrieval was performed with FLEX TRS High pH Retrieval buffer (DAKO, 9.01) for 20 min. After peroxidase blocking, the antibody Her2/neu rabbit monoclonal (Cell Marque Corporation, SP3 cat#237R-16) was applied at a dilution of 1:150 at RT for 20 min. The EnVision + detection System HRP anti-rabbit (DAKO, #K4002) was used for detection. DAB chromogen was then applied for 10 min. Sections of human breast specimens were mounted onto glass slides (Superfrost Plus, Fischer Scientific). The tissues were deparaffinized, and antigen retrieval was performed, as discussed above. Histology and IHC were performed to evaluate for ErbB2 expression.
Human breast specimens were embedded in paraffin and antigen unmasking was performed as described above. Blocking was performed with 2% BSA solution in PBS at RT for 1 hour. We used 1:250 dilution of monoclonal mouse anti-ErbB2 antibody (clone 111.6, Thermo Scientific). The sections were incubated at RT for 1 hour with primary antibody and then washed in PBS for 5 min. […] Fluorescence intensities were measured from 3 randomly positioned boxes with dimensions of 20 × 20 μm^2.

[4] = tested on: ErbB2 on BT474 (ErbB2+) and MDA-MB-231 (ErbB2−) human breast cancer cells; experiment: Confocal microscopy of NIR-labeled peptide binding to breast cancer cells; format: cell-based; details: 1 μM peptide, 2% BSA, 4 °C, 1 hour
Experimental: (§2) ~10^4 human breast cancer cells were seeded on 1 mm thick cover glass, and grown to ~80% confluence in 12 well plates. The cells were gently washed with cold PBS and blocked with 2% BSA before incubation with peptides. 1 μM of IRDye800CW-labeled peptides mixed with 2% BSA was added to each well and incubated at 4 °C for 1 hour. After incubation for […], the cells were washed with PBS 3X, fixed in ice cold 4% PFA for 10 min, and washed with PBS 1X. The cells were then embedded on microscope slides with 5 μL of ProLong Gold reagent containing DAPI (Invitrogen). SKBR3 cells were cultured in 6-well plates at 30–40% confluence in culture media supplemented with 10% fetal bovine serum without antibiotics. The cells were transfected with siRNA with a final concentration of […] using oligofectamine (Thermo Scientific).
For imaging, we used an inverted confocal microscope (Olympus FV1200) with a 63X water immersion objective and λex = 748 nm to excite IRDye800CW, λex = 405 nm for DAPI, and λex = 488 nm for Alexa Fluor 488. For antibody staining, the cells were pre-fixed with cold methanol for 10 min at −20 °C and blocked with 2% BSA for 30 min at room temperature (RT). […] Fluorescence intensities were measured from 3 randomly positioned boxes with dimensions of 20 × 20 μm^2, and were quantified using custom Matlab (Mathworks) software.

ErbB2 = experiment: Competition with unlabeled peptide for binding of labeled KSP* to cells; format: cell-based, human; details: unlabeled peptide 0, 100, 250, 500, 1000 μM, 30 min at 4 °C; for effect of unlabeled peptide on binding of KSP*-IR800: BT474 cells as per Results text, then 0.5 μM labeled peptide; for effect of unlabeled peptide on mean fluorescence intensity of KSP*-Cy5.5: SKBR3 cells, one-way ANOVA (Fig. 2 legend)
Experimental: We performed competition by adding either unlabeled KSP* or PPS* peptide to block binding of KSP*-IR800 to BT474 cells. […] We also observed good co-localization of binding between KSP*-Cy5.5 (red) and AlexaFluor488-labeled anti-ErbB2 antibody (green) with Pearson’s correlation coefficient ρ = 0.70, Fig. 2P–S.
Specific binding of KSP*-IR800 to SKBR3 cells was validated using competition with unlabeled KSP* peptide. SKBR3 cells were grown to ~70% confluence on coverslips in triplicate. Unlabeled KSP* at concentrations of 0, 100, 250, 500, and 1000 μM was incubated with the cells for 30 min at 4 °C. The cells were washed with PBS 3X, and further incubated with 0.5 μM of KSP*-IR800 for another 30 min at 4 °C. The cells were washed with PBS 3X and fixed with 4% PFA for 10 min. The cells were washed with PBS and then mounted with ProLong Gold reagent containing DAPI (Invitrogen). Confocal fluorescence images were collected and intensities from 6 independent images at each concentration were quantified using custom Matlab (Mathworks) software.

ErbB2 on SKBR3 cells = experiment: Binding co-localization with anti-ErbB2 antibody on cells; format: cell-based, human; details: KSP*-Cy5.5 and anti-ErbB2-AF488, average of 3 independent measurements
Experimental: […] The cells were washed and fixed with 4% PFA for 5 min, and then incubated with primary anti-ErbB2 and secondary AF488-labeled antibody.
For imaging, we used an inverted confocal microscope (Olympus FV1200) with a 63X water immersion objective and λex = 748 nm to excite IRDye800CW, λex = 405 nm for DAPI, and λex = 488 nm for Alexa Fluor 488. For antibody staining, the cells were pre-fixed with cold methanol for 10 min at −20 °C and blocked with 2% BSA for 30 min at room temperature (RT). Cells were incubated with a 1:450 dilution of anti-ErbB2 antibody (clone 111.6, Thermo Scientific) overnight at 4 °C. The cells were then washed with PBS 3X, and secondary goat […] antibody labeled with Alexa-Fluor 488 (AF488) was added to the cells for 1 hour at RT. The cells were washed further with PBS and mounted onto cover glass. Fluorescence intensities were measured from 3 randomly positioned boxes with dimensions of 20 × 20 μm^2, and were quantified using custom Matlab (Mathworks) software.

[5] = tested on: ErbB2 on SKBR3 human breast cancer cells; experiment: siRNA knockdown of ErbB2 in SKBR3 cells, binding of labeled ligand; format: cell-based
Experimental: We performed siRNA knockdown of ErbB2 in SKBR3 human breast cancer cells to validate specific binding of KSP* to ErbB2.
as §2
We examined ErbB2 knockdown in SKBR3 cells using ON-TARGETplus human siRNA (#L-003126–00–0005), ON-TARGETplus Non-targeting pool (#D-001810–10–05), and DharmaFECT transfection reagents (Thermo Scientific) per manufacturer instructions. We transfected SKBR3 cells with either siErbB2 (targeting siRNA) or siCL (non-targeting siRNA) for control at a final concentration of […] using oligofectamine (Thermo Scientific).

[6] = target: ErbB2 extracellular domain 3; details: cited from earlier work

For PPSNFKR [PPS*-IR800], the “peak emission λem” value ([1]; 5 μM peptide solution diluted in PBS, excitation 780 nm) was 800 nm, the “maximum absorbance λex” value ([1]; UV-vis spectrophotometer, 300–900 nm range) was 780 nm and the “binding / signal on immunofluorescence” value ([2]; BT474 xenograft tumor sections, 2% BSA, qualitative) was “minimal signal”. For the same substance, the “fluorescence intensity on immunofluorescence” value ([2]; MDA-MB-231 tumor sections, qualitative) was “minimal”, the “fluorescence intensity on immunofluorescence” value ([2]; normal breast sections, qualitative) was “minimal” and the “fold increase, BT474 versus MDA-MB-231 tumors” value ([2]; xenograft tumor sections, ANOVA with terms for 6 groups on log-transformed data) was 1.8 fold. The “binding / signal on immunofluorescence” value ([3]; ductal carcinoma in situ (DCIS), 0.5 μM peptide, 10 min at RT, qualitative) was “minimal signal”, the “binding / signal on immunofluorescence” value ([3]; invasive ductal carcinoma (IDC), 0.5 μM peptide, 2% BSA, 10 min at RT, qualitative) was “minimal signal” and the “fold greater signal, IDC (ErbB2+) versus normal (ErbB2−) breast” value ([3]; n = 4 patients, ANOVA on log-transformed data, difference of differences not significant, P = 0.09) was 1.30 fold. For the same substance, the staining on immunofluorescence ([3]; normal human breast tissue, 0.5 μM peptide, 10 min at RT, qualitative) was “minimal staining”, the “fold greater signal, BT474 versus MDA-MB-231 cells” value ([4]; average of 3 independent measurements, ANOVA on log-transformed data, difference of differences significant) was 1.04 fold and the “signal to cell surface” value ([4]; either cell (BT474 and MDA-MB-231), qualitative) was “Minimal signal”.
With “PPSNFKR [PPS*, unlabeled scrambled control peptide]” the “effect of unlabeled peptide on binding of KSP*-IR800” value (ErbB2) was “significantly less effective competition” and the “effect of unlabeled peptide on mean fluorescence intensity of KSP*-Cy5.5” value (ErbB2) was “significantly less affected”.
With KSPNPRF [KSP*-Cy5.5] the “Pearson's correlation coefficient ρ for co-localization with anti-ErbB2-AF488” value (ErbB2 on SKBR3 cells) was 0.70, the “fold greater signal, siCL control versus siErbB2 knockdown cells” value ([5]; SKBR3, average of 3 independent measurements, ANOVA, difference of differences significant) was 4.42 fold and the “reduction in fluorescence intensities in ErbB2 knockdown cells” value ([5]; SKBR3 siErbB2 versus siCL, qualitative) was “significant reduction”. The “binding to cell surface” value ([5]; control SKBR3 cells (siCL), qualitative) was “strong binding”, the Kd ([6]; peptide labeled with Cy5.5, read-out: affinity) was 0.02 µM and the “binding kinetics (rate)” value ([6]; peptide labeled with Cy5.5) was 0.14 min⁻¹.
For KSPNPRF [KSP*], the “effect of unlabeled peptide on binding of KSP*-IR800” value (ErbB2) was “decreases significantly in a concentration dependent manner” and the “effect of unlabeled peptide on mean fluorescence intensity of KSP*-Cy5.5” value (ErbB2) was “decreases significantly in a concentration dependent manner”.
